Test results taken from patent US20230167088A1, “1-PYRAZINYLPYRAZOLYL-3-OXYALKYL ACIDS AND THEIR DERIVATIVES, AND THEIR USE FOR CONTROL OF UNDESIRED PLANT GROWTH” (BAYER AKTIENGESELLSCHAFT, priority 2020, published 2023).

Assays:
AMARE [1] = test: Herbicidal post-emergence action 1a (greenhouse pots, visual rating); assay type: in vivo, Amaranthus retroflexus; settings: dosage 320 g/ha, visual rating about 3 weeks after treatment
Protocol: (§1) [table] a) Seeds of monocotyledonous and dicotyledonous weeds and crop plants are placed in sandy loam in plastic or organic plant pots, covered with soil and cultivated in a greenhouse under controlled growth conditions. 2 to 3 weeks after sowing, the test plants are treated at the one-leaf stage. The compounds of the invention, formulated in the form of wettable powders (WP) or as emulsion concentrates (EC), are then sprayed onto the green parts of the plants as aqueous suspension or emulsion with addition of 0.5% additive at a water application rate of 600 1/ha (converted). After the test plants have been kept in the greenhouse under optimum growth conditions for about 3 weeks, the activity of the preparations is rated visually in comparison to untreated controls. For example, 100% activity=the plants have died, 0% activity=like control plants. Tables A1 to A15 below show the effects of selected compounds of the general formula (I) according to Tables 1 and 2 on various harmful plants and an application rate corresponding to 320 g/ha and/or 80 g/ha, which were obtained by the experimental procedure mentioned above.

STEME [2] = test: Herbicidal post-emergence action 1b (twin sowing, 1280 g/ha); assay type: in vivo, Stellaria media; settings: dosage 1280 g/ha, visual rating about 3 weeks after treatment
Protocol: (§2) [table] b) Seeds of mono- and dicotyledonous weed plants are placed in plastic pots in sandy loam soil (twin sowing with one species each of mono- or dicotyledonous weed plants per pot), covered with soil and cultivated in a greenhouse under controlled growth conditions. 2 to 3 weeks after sowing, the test plants are treated at the one-leaf stage. The compounds of the invention, formulated in the form of wettable powders (WP) or as emulsion concentrates (EC), are applied to the green parts of the plants as aqueous suspension or emulsion with addition of 0.5% additive at a water application rate equivalent to 600 litres per hectare. After the test plants have been kept in the greenhouse under optimum growth conditions for about 3 weeks, the activity of the preparations is rated visually in comparison to untreated controls. For example, 100% activity=the plants have died, 0% activity=like control plants. Tables A16 to A21 below show the effects of selected compounds of the general formula (I) according to Tables 1 and 2 on various harmful plants and at an application rate corresponding to 1280 g/ha, which were obtained by the experimental procedure mentioned above.

POAAN [3] = test: as above; assay type: in vivo, Poa annua; settings: dosage 1280 g/ha, visual rating about 3 weeks after treatment
Protocol: as §2

VERPE = test: Herbicidal pre-emergence action 2a (greenhouse pots, visual scoring); assay type: in vivo, Veronica persica; settings: dosage 320 g/ha, visual scoring after about 3 weeks vs untreated controls
Excerpt: (§3) [table] a) Seeds of monocotyledonous and dicotyledonous weed plants and crop plants are placed in plastic or organic plant pots and covered with soil. The compounds of the invention, formulated in the form of wettable powders (WP) or as emulsion concentrates (EC), are then applied onto the surface of the covering soil as aqueous suspension or emulsion with addition of 0.5% additive at a water application rate of 600 1/ha (converted). After the treatment, the pots are placed in a greenhouse and kept under good growth conditions for the trial plants. After about 3 weeks, the effect of the preparations is scored visually in comparison with untreated controls as percentages. For example, 100% activity=the plants have died, 0% activity=like control plants. Tables B1 to B15 below show the effects of selected compounds of the general formula (I) according to Tables 1 and 2 on various harmful plants and an application rate corresponding to 320 g/ha and/or 80 g/ha, which were obtained by the experimental procedure mentioned above.

AMARE [4] = test: Herbicidal pre-emergence action 2b (doubly sown, 1280 g/ha); assay type: in vivo, Amaranthus retroflexus; settings: doubly sown pots, dosage 1280 g/ha, visual scoring after about 3 weeks
Excerpt: (§4) [table] b) Seeds of mono- and dicotyledonous weed plants are placed in plastic pots in sandy loam soil (doubly sown with one species each of mono- or dicotyledonous weed plants per pot) and covered with soil. The compounds of the invention, formulated in the form of wettable powders (WP) or as emulsion concentrates (EC), are then applied onto the surface of the covering soil as aqueous suspension or emulsion with addition of 0.5% additive at a water application rate equivalent to 600 litres per hectare. After the treatment, the pots are placed in a greenhouse and kept under good growth conditions for the trial plants. After about 3 weeks, the effect of the preparations is scored visually in comparison with untreated controls as percentages. For example, 100% activity=the plants have died, 0% activity=like control plants. Tables B16 to B21 below show the effects of selected compounds of the general formula (I) according to Tables 1 and 2 on various harmful plants and at an application rate corresponding to 1280 g/ha, which were obtained by the experimental procedure mentioned above.

ALOMY [5] = test: Herbicidal post-emergence action 1a (greenhouse pots, visual rating); assay type: in vivo, Alopecurus myosuroides; settings: Dosage 320 g/ha; rated visually about 3 weeks after treatment; 100% = plants have died, 0% = like control plants
Protocol: as §1

POAAN [6] = test: Herbicidal pre-emergence action 2b (doubly sown, 1280 g/ha); assay type: in vivo, Poa annua; settings: doubly sown pots, dosage 1280 g/ha, visual scoring after about 3 weeks
Excerpt: as §4

ECHCG = test: as above; assay type: in vivo, Echinochloa crus-galli; settings: doubly sown pots, dosage 1280 g/ha, visual scoring after about 3 weeks
Excerpt: as §4

ALOMY [7] = test: Herbicidal pre-emergence action 2a (greenhouse pots, visual scoring); assay type: in vivo, Alopecurus myosuroides; settings: dosage 320 g/ha, visual scoring after about 3 weeks
Excerpt: as §3

DIGSA = test: Herbicidal pre-emergence action 2b (doubly sown, 1280 g/ha); assay type: in vivo, Digitaria sanguinalis; settings: doubly sown pots, dosage 1280 g/ha, visual scoring after about 3 weeks
Excerpt: as §4

VIOTR [8] = test: Herbicidal pre-emergence action 2a (greenhouse pots, visual scoring); assay type: in vivo, Viola tricolor; settings: dosage 320 g/ha, visual scoring after about 3 weeks vs untreated controls
Excerpt: as §3

VIOTR [9] = test: Herbicidal post-emergence action 1a (greenhouse pots, visual rating); assay type: in vivo, Viola tricolor; settings: dosage 320 g/ha, visual rating about 3 weeks after treatment
Protocol: as §1

MATIN [10] = test: Herbicidal pre-emergence action 2b (doubly sown, 1280 g/ha); assay type: in vivo, Matricaria inodora; settings: doubly sown pots, dosage 1280 g/ha, visual scoring after about 3 weeks
Excerpt: as §4

STEME [11] = test: as above; assay type: in vivo, Stellaria media; settings: doubly sown pots, dosage 1280 g/ha, visual scoring after about 3 weeks
Excerpt: as §4

MATIN [12] = test: Herbicidal post-emergence action 1b (twin sowing, 1280 g/ha); assay type: in vivo, Matricaria inodora; settings: dosage 1280 g/ha, visual rating about 3 weeks after treatment
Protocol: as §2

POLCO = test: Herbicidal pre-emergence action 2a (greenhouse pots, visual scoring); assay type: in vivo, Polygonum convolvulus; settings: dosage 320 g/ha, visual scoring after about 3 weeks vs untreated controls
Excerpt: as §3

AVEFA = test: as above; assay type: in vivo, Avena fatua; settings: dosage 320 g/ha, visual scoring after about 3 weeks
Excerpt: as §3

AMARE [13] = test: as above; assay type: in vivo, Amaranthus retroflexus; settings: dosage 320 g/ha, visual scoring after about 3 weeks vs untreated controls
Excerpt: as §3

LOLRI = test: as above; assay type: in vivo, Lolium rigidum; settings: dosage 320 g/ha, visual scoring after about 3 weeks vs untreated controls
Excerpt: as §3

MATIN [14] = test: as above; assay type: in vivo, Matricaria inodora; settings: dosage 320 g/ha, visual scoring after about 3 weeks vs untreated controls
Excerpt: as §3

| Compound | Post-emergence action against AMARE in % (AMARE [1]) | Post-emergence action at 1280 g/ha against STEME in % (STEME [2]) | Post-emergence action at 1280 g/ha against POAAN in % (POAAN [3]) | Pre-emergence action against VERPE in % (VERPE) | Pre-emergence action at 1280 g/ha against AMARE in % (AMARE [4]) | Post-emergence action against ALOMY in % (ALOMY [5]) | Pre-emergence action at 1280 g/ha against POAAN in % (POAAN [6]) | Pre-emergence action at 1280 g/ha against ECHCG in % (ECHCG) | Pre-emergence action against ALOMY in % (ALOMY [7]) | Pre-emergence action at 1280 g/ha against DIGSA in % (DIGSA) | Pre-emergence action against VIOTR in % (VIOTR [8]) | Post-emergence action against VIOTR in % (VIOTR [9]) | Pre-emergence action at 1280 g/ha against MATIN in % (MATIN [10]) | Pre-emergence action at 1280 g/ha against STEME in % (STEME [11]) | Post-emergence action at 1280 g/ha against MATIN in % (MATIN [12]) | Pre-emergence action against POLCO in % (POLCO) | Pre-emergence action against AVEFA in % (AVEFA) | Pre-emergence action against AMARE in % (AMARE [13]) | Pre-emergence action against LOLRI in % (LOLRI) | Pre-emergence action against MATIN in % (MATIN [14]) |
| --- | --- | --- | --- | --- | --- | --- | --- | --- | --- | --- | --- | --- | --- | --- | --- | --- | --- | --- | --- | --- |
| COC(=O)[C@@H](C)Oc1nn(-c2cnccn2)c(-c2ccc(F)nc2)c1C#N [Example I-25] | 80% | 90% | 90% | 90% | 100% | 80% | 100% | 90% | 80% | 100% | 90% | 90% | 90% | – | – | – | – | – | – | – |
| O=C(O)COc1nn(-c2cnccn2)c(-c2ccc(F)c(F)c2)c1Br [Example I-41] | – | – | 100% | – | 100% | – | 100% | 100% | – | 100% | – | – | 100% | 100% | 90% | – | – | – | – | – |
| COC(=O)[C@@H](C)Oc1nn(-c2cnccn2)c(-c2cnc(F)c(F)c2)c1Br [Example I-43] | – | 90% | 100% | – | 100% | – | 100% | – | – | 100% | – | – | 90% | 100% | 100% | – | – | – | – | – |
| CCOC(=O)COc1nn(-c2cnccn2)c(-c2ccc(F)nc2)c1[N+](=O)[O-] [Example I-50] | – | 90% | 90% | – | 100% | – | 100% | – | – | 100% | – | – | 90% | 90% | 90% | – | – | – | – | – |
| C[C@@H](Oc1nn(-c2nccnc2Cl)c(-c2ccc(F)nc2)c1Br)C(=O)O [Example I-75] | – | – | – | – | – | – | – | – | 100% | – | 80% | – | – | – | – | 80% | 90% | 90% | 100% | – |
| COC(=O)COc1nn(-c2nccnc2F)c(-c2ccc(F)nc2)c1Br [Example I-77] | – | – | – | – | – | – | – | – | – | – | 80% | – | – | – | – | – | – | 80% | – | 80% |
